# Values quoted from earlier work, collected in patent US20240315991A1, “USES OF HNF4 ALPHA AGONISTS” (Sanford Burnham Prebys Medical Discovery Institute, priority 2023, published 2024).
# Tests used:
# HNF4α [1] = biological target: T1, HNF4α (Homo sapiens, UniProt P41235); settings: cited from earlier work
# T1 sequence (P41235 1-474): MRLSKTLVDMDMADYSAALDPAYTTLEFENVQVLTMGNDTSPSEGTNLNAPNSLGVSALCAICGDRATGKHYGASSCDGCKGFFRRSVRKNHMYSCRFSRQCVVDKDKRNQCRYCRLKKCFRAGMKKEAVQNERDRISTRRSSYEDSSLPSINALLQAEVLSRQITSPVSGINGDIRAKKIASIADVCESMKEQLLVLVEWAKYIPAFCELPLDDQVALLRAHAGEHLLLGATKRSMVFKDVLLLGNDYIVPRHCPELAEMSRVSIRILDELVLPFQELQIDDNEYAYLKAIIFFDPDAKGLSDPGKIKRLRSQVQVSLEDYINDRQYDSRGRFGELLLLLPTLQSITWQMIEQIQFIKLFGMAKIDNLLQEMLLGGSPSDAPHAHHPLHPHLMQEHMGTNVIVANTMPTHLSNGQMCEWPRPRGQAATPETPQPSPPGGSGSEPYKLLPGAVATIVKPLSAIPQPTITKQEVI
# [2] = cited from earlier work
# HNF4α [3] = biological target: T1, HNF4α; settings: GFP expressed under the control of the human insulin promoter; cited from earlier work
Structure (SMILES),specificity for HNF4α (HNF4α [1]; HNF4α siRNA ablates their effect),"activation of HNF4α, potency compared with Alverine and Benfluorex (HNF4α [1])",oral bioavailability [2],agonism of HNF4α (HNF4α [3])
"COc1cc(/C=C/C(=O)NCCc2ccc(O)cc2)ccc1O [NFT, N-trans feruloyltyramine, reference compound]",exhibit specificity for HNF4α,much more potent activators,poor,–
CC(Cc1cccc(C(F)(F)F)c1)NCCOC(=O)c1ccccc1 (centres unmarked) [Benfluorex],–,–,–,weak agonists
CCN(CCCc1ccccc1)CCCc1ccccc1 [Alverine],–,–,–,weak agonists
